This note sets out measurements from patent publication US20060016765A1, “Water treatment” (priority 2004, published 2006).

Values joined by “and” are separate entries in the source; they are usually repeats but may differ in a detail not shown here. Identical values can stand only once. Like-named read-outs stand apart in the source and are kept apart here.

Holding throughout (type): cell-based
In assay [1] the test system is Staphylococcus aureus ATCC 6538. In words: Microbial efficacy, modified AOAC 965.13, serial-dilution plate count.
Assay [2] has as its system Pseudomonas aeruginosa ATCC 15442. The description is as above.
Assay [3] relates to Salmonella choleraesuis ATCC 10708.
For assay [4], the system named is Aspergillus fumigatus ATCC 1098. In words: Fungicidal activity, modified AOAC Method 955.17, spore kill. To be noted: for reduction of the fungal bioburden: solutions equivalent to amounts found in the tablet solution. As to the method: This assay had several modifications from the published AOAC Fungicidal Activity of Disinfectants Protocol, Method 955.17. Aspergillus fumigatus ATCC 1098 was grown on Malt Extract Agar (available from Becton Dickinson, Billerica, Mass.) plates, and spores were harvested. Spores were stored in filter-sterilized Millipore water at −20° C. The spore preparation used for this experiment is detailed below. A freezer stock of A. fumigatus was defrosted and diluted to obtain an inoculum suspension for this experiment. […] The following test solutions were prepared using filter-sterilized MILLIPORE water in steam-sterilized 4 L bottles:
Water Control: (filter-sterilized water only), pH 6.28.
OXONE Control: 3.78 g OXONE in 1 gallon (about 3.8 liters) sterile water, buffered to pH 4.43 using 0.98 g NaHCO3 and 5.25 g 10% H2SO4.
Chlorite Control: 0.26 g of sodium chlorite in 1-gallon sterile water buffered to pH 4.55 (1.8 g 10% H2SO4).
Buffer Control: sodium bicarbonate, pH adjusted to 4.4.
Chlorine Dioxide: Anthium Dioxide (stabilized sodium chlorite available from IDI, North Kingston, R1) was acidified with HCl.
CLOROX control: 4.17% (v/v) CLOROX bleach available from Clorox Company, Oakland, Calif. (v/v) in MILLIPORE water by mixing 4.17 ml of Clorox bleach and water up to 100 ml total volume.
Reaction tubes: 5 ml of each test solution was aliquoted into 25×150 mm test culture tubes, capped and labeled according to Table 6. 9 ml of D/E (Dey/Engley) Neutralizing Broth (available from Becton Dickinson, Billerica, Mass.) was added to each of 28 test tubes and the tubes were capped. Butterfield buffer blanks were arranged for dilution of neutralized samples, and Malt Extract Agar plates were numbered for spore enumerations of the diluted, neutralized samples. With a graduated pipette, 0.5 ml of spore inoculum (about […]) was added to the first tube of test solution and gently shaken. After 5- and 15-minute exposures to the respective test solutions, samples were gently shaken and 1 ml samples were removed from each reaction mixture (spore-test solution) using an Eppendorf pipette and placed in 9 ml D/E (Dey/Engley) Neutralizing Broth. The inoculum was further diluted to approximately 10^4 condia/ml. Two more reaction tubes (water and OXONE-chlorite) and four Dey/Engley neutralization tubes were prepared to evaluate the efficacy of the tablet solution versus a final inoculum density of 10^4 condia/ml in the reaction tube. Samples were reacted for 15 minutes only. Dilutions of neutralized samples were prepared. Two 100 μl aliquots of all samples in D/E (Dey/Engley) Neutralizing Broth were plated on Malt Extract Agar and incubated at 25° C. until the appearance of colonies. Plates were counted after colonies appeared, roughly 4 days after incubation. Several dilutions of the inoculum spore suspensions were also plated on Malt Extract Agar to obtain an accurate count of viable spores used as inoculum. The samples were incubated at 25° C. and counted after the appearance of colonies, after about 4 days of incubation.
Buffer control data was taken after 15 minutes. CLOROX control data was taken after 5 minutes of treatment.

[5] abbreviates: 30 sec exposure, Example 11 = 1,008 ppm Oxone + 55.5 ppm Chlorite, controls 1,008 ppm Oxone, 55.5 ppm Chlorite, 23.2 ppm ClO2.
The mark [6] stands for this setting: 30 sec exposure, Example 11 = 1,008 ppm Oxone + 55.5 ppm Chlorite, controls 1,008 ppm Oxone, 55.5 ppm Chlorite, 23.2 ppm ClO2, low level of detection 1.0E+01 CFU/mL.
The mark [7] stands for this setting: 10 min exposure, Example 11 = 1,008 ppm Oxone + 55.5 ppm Chlorite, controls 1,008 ppm Oxone, 55.5 ppm Chlorite, 23.2 ppm ClO2.
Setting [8] is: 10 min exposure, Example 11 = 1,008 ppm Oxone + 55.5 ppm Chlorite, controls 1,008 ppm Oxone, 55.5 ppm Chlorite, 23.2 ppm ClO2, low level of detection 1.0E+01 CFU/mL.

For the compound `[O][Cl+][O-]` [ClO2 control, chlorine dioxide], in assay [1], the CFU/ml amounted to 1.00E + 01 CFU/ml; the “Δt (log difference test and control densities)” value is 5.1 log and 5.2 log. In assay [2], the CFU/ml is listed as 1.00E + 01 CFU/ml; the “Δt (log difference test and control densities)” value is 5 log and 5.0 log and 5.1 log. Also, in assay [3], the CFU/ml was found to be 1.00E + 01 CFU/ml; the “Δt (log difference test and control densities)” value was 5.1 log and 5.3 log. In addition, in assay [4], the “Surviving Bioburden Counts (germinating spores, conidia/ml)” value (“Surviving Bioburden Counts” for short) is 0.00E + 00 conidia/ml and the “kill of A. fumigatus spores within 5 minutes” value came out at 5 log.

Turning to sodium chlorite [Chlorite control], the “Δt (log difference test and control densities)” value in assay [1] (setting [5]) is listed as 0.0 log; in assay [1] (setting [7]) it was 0.1 log; in assay [2] (setting [5]), −0.1 log; in assay [2] (setting [7]), 0.0 log; in assay [3] (setting [5]) it was −0.3 log; in assay [3] (setting [7]), 0.2 log. For the same compound, the CFU/ml in assay [1] (setting [6]) turned out to be 1.23E + 06 CFU/ml; in assay [1] (setting [8]), 1.20E + 06 CFU/ml; in assay [2] (setting [6]) it was 1.17E + 06 CFU/ml; in assay [2] (setting [8]), 1.21E + 06 CFU/ml; in assay [3] (setting [6]) it was 3.09E + 06 CFU/ml; in assay [3] (setting [8]) it was 1.27E + 06 CFU/ml. The “Surviving Bioburden Counts” value in assay [4] (5 min, 2 replicates average) was determined as 4.25E + 05 conidia/ml; in assay [4] (15 min, 2 replicates average) it was 6.25E + 05 conidia/ml. Besides, in assay [4], the “reduction of the fungal bioburden” value was “ineffective in reducing the fungal bioburden”. The “reduction of the bioburden within 15 minutes of treatment” value in assay [4] was “not able to reduce the bioburden”.

As to “triple salt of potassium monopersulfate, potassium hydrogen sulfate and potassium sulfate [Oxone control]”, the “Δt (log difference test and control densities)” value was found to be 0.0 log in assay [1] (setting [5]), 0.4 log in assay [1] (setting [7]), 0.0 log in assay [2] (setting [5]) and 5.1 log in assay [2] (setting [7]). Moreover, the CFU/ml was 1.52E + 06 CFU/ml in assay [1] (setting [6]); 6.15E + 05 CFU/ml in assay [1] (setting [8]); 9.50E + 05 CFU/ml in assay [2] (setting [6]); 1.00E + 01 CFU/ml in assay [2] (setting [8]); 2.95E + 03 CFU/ml and 2.14E + 06 CFU/ml in assay [3]. Besides, the “Surviving Bioburden Counts” value amounted to 3.45E + 05 conidia/ml in assay [4] (5 min, 2 replicates average) and 5.70E + 05 conidia/ml in assay [4] (15 min, 2 replicates average). Also, in assay [4], the “reduction of the fungal bioburden” value was “ineffective in reducing the fungal bioburden”. Also, the “reduction of the bioburden within 15 minutes of treatment” value in assay [4] is “not able to reduce the bioburden”.
